In publication PMC4047118, “BM-1197: A Novel and Specific Bcl-2/Bcl-xL Inhibitor Inducing Complete and Long-Lasting Tumor Regression In Vivo” (PLoS ONE, 2014):
Read-outs that look alike come from different tables or passages of the source.

Assays:
[1] = test system: MCL1-wild-type (WT) MEF cells; assay: cell growth inhibition, WST assay, wild-type MEF; assay type: cell-based; details: Mus musculus, 72 h, 3 days
Method: (§1) All the SCLC cell lines were purchased from American Type Culture Collection (Manassas, VA) and cultured as recommended. All these cell lines were passaged fewer than 6 months after purchase. MCL1 knockout (MCL1^−/−) MEF cells were kindly provided by Dr. David Huang (The Walter and Eliza Hall Institute of Medical Research, Melbourne, Australia). Cell growth inhibition was evaluated by means of a WST-8 assay (Dojindo, Rockville, MD) as described previously. Mitochondrial membrane potential was determined by JC-1 staining using a JC-1 Mitochondrial Membrane Potential Assay kit (Cayman). Apoptosis analysis was performed using an Annexin V/propidium iodide (PI) apoptosis detection kit (Roche Applied Sciences, Indianapolis, IN).
(§2) (B) MCL1^−/− cells were treated with 100 nM of BM-1197 for 16 h and stained with Annexin V/PI for flow cytometry. […] They are given in the order upper left, upper right, lower left, lower right.

[2] = test system: MCL1-deficient (MCL1−/−) MEF cells; assay: cell growth inhibition, WST assay, MCL1-deficient MEF; assay type: cell-based, mouse; details: Mus musculus, MEF, 72 h; 3 days, WST assay
Method: as §1, §2

[3] = target: T1, Bcl-xL (Mus musculus, UniProt Q64373); assay: cellular thermal shift assay (CETSA), Bcl-xL; assay type: cell-based; details: 1 µM, 1 h, MEF MCL1−/− cells
T1 construct: endogenous in cells; host or cells: MEF MCL1-/- cells
T1 sequence (Q64373 whole entry): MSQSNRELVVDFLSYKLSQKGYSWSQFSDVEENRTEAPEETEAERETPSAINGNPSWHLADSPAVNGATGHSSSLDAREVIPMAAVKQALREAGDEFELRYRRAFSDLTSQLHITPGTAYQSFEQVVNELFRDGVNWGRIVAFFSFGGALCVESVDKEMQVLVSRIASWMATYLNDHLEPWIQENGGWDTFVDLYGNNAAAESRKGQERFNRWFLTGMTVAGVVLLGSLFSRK
Method: (§3) Drug-target engagement was assessed using CETSA as described by Molina et al.. Briefly, cells were treated with drugs for 1 h, then harvested, washed with PBS, and resuspended in PBS. The resuspended cells were freeze-thawed 4 times. The soluble fraction (lysate) was separated from cell debris by centrifugation at 20000×g for 20 minutes at 4°C and then analyzed by Western blots.
(§4) Drug-treated cells were heated at gradient temperature from 42°C to 62°C for 3 min then freeze-thawed 4 times. The soluble fractions of the lysed cells were analyzed by immunoblotting. (B) MEF MCL1^− ^/− cells were treated with drugs at the indicated doses for 1 h before collected for CETSA.

[4] = target: T2, Bcl-2 (Mus musculus, UniProt P10417); assay: cellular thermal shift assay (CETSA), Bcl-2; assay type: cell-based; details: 1 µM, 1 h, MEF MCL1−/− cells
T2 construct: endogenous in cells; host or cells: MEF MCL1-/- cells
T2 sequence (P10417 whole entry): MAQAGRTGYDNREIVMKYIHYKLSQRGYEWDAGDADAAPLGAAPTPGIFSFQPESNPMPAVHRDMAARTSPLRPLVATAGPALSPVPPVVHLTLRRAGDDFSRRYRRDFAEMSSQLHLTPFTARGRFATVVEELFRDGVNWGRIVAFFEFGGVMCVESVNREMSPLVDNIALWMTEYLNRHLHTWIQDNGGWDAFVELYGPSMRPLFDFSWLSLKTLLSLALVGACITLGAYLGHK
Method: as §3, §4

[5] = test system: H146; assay: SCLC cell growth inhibition (WST-8), H146; assay type: cell-based; details: Homo sapiens
Method: as §1
Data are representative of two independent experiments.

[6] = test system: H1417; assay: SCLC cell growth inhibition (WST-8), H1417; assay type: cell-based; details: Homo sapiens, NCI-H1417; 96-h incubation, means ± SD (n = 3–6)
Method: as §1

[7] = test system: H1963; assay: SCLC cell growth inhibition (WST-8), H1963; assay type: cell-based; details: Homo sapiens, NCI-H1963; 96-h incubation, means ± SD (n = 3–6)
Method: as §1

[8] = test system: H211; assay: SCLC cell growth inhibition (WST-8), H211; assay type: cell-based; details: Homo sapiens, NCI-H211; 96-h incubation, means ± SD (n = 3–6)
Method: as §1

[9] = test system: H187; assay: SCLC cell growth inhibition (WST-8), H187; assay type: cell-based; details: Homo sapiens, NCI-H187; 96-h incubation, means ± SD (n = 3–6)
Method: as §1

[10] = test system: DMS79; assay: SCLC cell growth inhibition (WST-8), DMS79; assay type: cell-based; details: Homo sapiens, DMS-79; 96-h incubation, means ± SD (n = 3–6)
Method: as §1

[11] = test system: H889; assay: SCLC cell growth inhibition (WST-8), H889; assay type: cell-based; details: Homo sapiens, NCI-H889; 96-h incubation, means ± SD (n = 3–6)
Method: as §1

[12] = test system: SW1271; assay: SCLC cell growth inhibition (WST-8), SW1271; assay type: cell-based; details: Homo sapiens, 96-h incubation, means ± SD (n = 3–6)
Method: as §1

[13] = test system: DMS53; assay: SCLC cell growth inhibition (WST-8), DMS53; assay type: cell-based; details: Homo sapiens, DMS-53; 96-h incubation, means ± SD (n = 3–6)
Method: as §1

[14] = test system: H82; assay: SCLC cell growth inhibition (WST-8), H82; assay type: cell-based; details: Homo sapiens, NCI-H82; 96-h incubation, means ± SD (n = 3–6)
Method: as §1

[15] = test system: DMS273; assay: SCLC cell growth inhibition (WST-8), DMS273; assay type: cell-based; details: Homo sapiens, DMS-273; 96-h incubation, means ± SD (n = 3–6)
Method: as §1

[16] = test system: H196; assay: SCLC cell growth inhibition (WST-8), H196; assay type: cell-based; details: Homo sapiens, NCI-H196; 96-h incubation, means ± SD (n = 3–6)
Method: as §1

[17] = test system: H146 xenograft tumors; assay: H146 subcutaneous xenograft model; assay type: in vivo, SCID mice
Method: Tumor sizes were measured 2–3 times per week. Tumor growth inhibition was calculated by using the formula: 100% (mean volume of controls - mean volume of treated)/mean volume of controls.
Figure 10 In vivo antitumor activity of BM-1197. […] Data shown are mean ± SEM for 6–8 mice. (E & F) SCID mice bearing H146 or H1963 cells were treated with 10 mg/kg of BM-1197 IV for the indicated times. Tumor lysates were analyzed by immunoblotting.

[18] = target: Bcl-2 (Homo sapiens, UniProt P10415); details: cited from earlier work
Bcl-2 (Homo sapiens, UniProt P10415), sequence (P10415 whole entry): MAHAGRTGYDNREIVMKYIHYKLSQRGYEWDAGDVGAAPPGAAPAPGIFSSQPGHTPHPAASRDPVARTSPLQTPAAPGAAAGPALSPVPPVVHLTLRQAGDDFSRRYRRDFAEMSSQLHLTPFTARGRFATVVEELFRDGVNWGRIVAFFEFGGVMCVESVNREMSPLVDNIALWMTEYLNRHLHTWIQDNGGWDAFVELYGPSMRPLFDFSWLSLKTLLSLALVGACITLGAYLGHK

[19] = target: Bcl-xL (Homo sapiens, UniProt Q07817); details: cited from earlier work
Bcl-xL (Homo sapiens, UniProt Q07817), sequence (Q07817 whole entry): as the sequence (Q64373 whole entry) above, with E40G, A43S, R45M, S168A, D193E counted along it

[20] = test system: four small-cell lung cancer cell lines sensitive to ABT-263; parameters: method as in PMID 23448298; details: cited from earlier work
[21] = test system: H146 small-cell lung cancer xenograft; parameters: method as in PMID 23448298; details: H146 xenograft in SCID mice; cited from earlier work

CC1(C)CCC(c2ccc(Cl)cc2)=C(CN2CCN(c3ccc(C(=O)NS(=O)(=O)c4ccc(N[C@H](CCN5CCOCC5)CSc5ccccc5)c(S(=O)(=O)C(F)(F)F)c4)cc3)CC2)C1 [ABT-263, reference compound]
IC50 [1]: > 2000 nM
IC50 [2]: 41 ± 3 nM
thermal stability of Bcl-xL protein [3]: enhanced
thermal stability of Bcl-2 protein [4]: enhanced
IC50 ([5]; NCI-H146, 96 h, read-out: IC50 (1% FBS), H146, 4 days, WST assay, 1% FBS): 3.5 nM
IC50 ([5]; NCI-H146, 96 h, read-out: IC50 (1% FBS+3% HSA), H146, 4 days, WST assay, 1% FBS+3% HSA): 83 nM
IC50 ([5]; NCI-H146, 96 h, read-out: IC50 (10% FBS), H146, 4 days, WST assay, 10% FBS): 26.8 nM
IC50 ([5]; NCI-H146, 96 h, read-out: IC50 (50% FBS), H146, 4 days, WST assay, 50% FBS): 75.2 nM
IC50 ([5]; NCI-H146, 96-h incubation, means ± SD (n = 3–6), read-out: IC50 cell growth, H146): 24 ± 12 nM
IC50 [6]: 79 ± 31 nM
IC50 [7]: 30 ± 17 nM
IC50 [8]: 66 ± 50 nM
IC50 [9]: 70 ± 29 nM
IC50 [10]: 430 ± 343 nM
IC50 [11]: 30 ± 11 nM
IC50 [12]: > 2000 nM
IC50 [13]: 197 ± 50 nM
IC50 [14]: > 2000 nM
IC50 [15]: > 2000 nM
IC50 [16]: > 2000 nM
tumors regrown 29 days after the last treatment ([17]; 100 mg/kg daily oral dosing): Four out of 8
tumors regrown 57 days after the last treatment ([17]; 100 mg/kg daily oral dosing): 7 of the 8
tumor regression ([17]; 100 mg/kg daily oral dosing (5 days per week), 14 days after the start of the treatment): regressed H146 tumors to a barely palpable state
weight loss compared to control group ([17]; all dose-schedules in H146 model, no other signs of toxicity): no statistically significant weight loss

Cc1c(C(=O)NS(C)(=O)=O)c(-c2cccc(N3CCN(c4ccc(NS(=O)(=O)c5ccc(N[C@H](CCN(C)C)CSc6ccccc6)c([N+](=O)[O-])c5)cc4)CC3)c2)c(-c2ccc(Cl)cc2)n1C(C)C [BM-1074]
Ki [18]: < 1 nM
Ki [19]: < 1 nM
IC50 ([20]; four small-cell lung cancer cell lines sensitive to ABT-263, read-out: IC50 cancer cell growth): 1 to 2 nM
times more potent than ABT-263 ([20]; four small-cell lung cancer cell lines): > 10 times
tumor regression [21]: rapid, complete, and durable tumor regression
